# Experimental data as given in patent US20070207230A1, “EXTRACT OF NELUMBINIS SEMEN FOR THE TREATMENT OF DEPRESSION, MEDICINAL COMPOSITE AND HEALTH FOODS INCLUDING THE EXTRACT OF NELUMBINIS SEMEN” (PURIMED CO., LTD., priority 2004, published 2007).
# Experiments:
# [1] = test system: Sprague-Dawley male rats; experiment: Forced swim test, immobility time; type: in vivo, rat; conditions: 5 min forced swim the day after
# Procedure: During forced swimming, the immobility time, when a rat ceases struggling and remains floating motionless in the water, was measured. The forced swimming itself induces depression in rats. Rats in water baths struggle first, and then stop struggling and remain floating motionless in the water. At the immobile state, rats become desperate and almost come to give up their lives. This time is considered to be the situation when depression is induced.
# The antidepressive effects of drugs are assessed using this principle. Before being administered with drugs, experimental animals (rats) are dropped into water baths and forced to swim for 15 minutes to be trained to adapt to a suddenly changed environment without fear.
# A comparative group was orally administered with a Hypericum perforatum extract. Another comparative group was intraperitoneally administered with fluoxetine. Each drug was administered for one day or six days.
# Before the drug administration, the white rats were dropped into a cylindrical water bath (20 cm in diameter; 40 cm water depth) and forced to swim for 15 min. The day after the drug administration for one day or six days, the rats were forced to swim for 5 min, and during this forced swimming, immobility time was measured.
# [2] = test system: male Wistar white rats exposed to CMS; experiment: Sucrose intake in the CMS model of depression; type: in vivo, rat; conditions: 8-week CMS, drug for the last four weeks
# Description: Postnatal 6-week-old male Wistar white rats weighing 180-200 g were divided into test groups and a control group. The rats were first trained to experience and drink a 1% sucrose solution for 48 hrs to be adapted to sweetness. After three days, the test groups were exposed to CMS (chronic mild stress) for a total of eight weeks. The CMS procedure applied to the test groups was based on the procedure originally designed by Willner et al. (1987). The rats were sequentially exposed to a variety of mild stressors, and a series of stressors was suitably divided over one week and applied to rats according to a predetermined time schedule. This procedure was repeated for eight weeks.
# The stress procedure is given in Table 1, below, which describes a weekly CMS regime (20-h food and water deprivation, prey limitation after the food and water deprivation (45 g powdered prey sprinkled), exposure to empty water bottles after the food and water deprivation, all day illumination, 30° cage tilt; soiled cage (400 ml of water spilled on bedding), presentation of intermittent 85-dB white noise, presentation of flashes of light with a stroboscope, and tripled housing). The control rats were weekly exposed only to food and water deprivation for 20 hrs before sucrose intake was measured, and were normally bred in single cages for the rest of the time with sufficient water and food supply. […]
# [3] = Body weight in the CMS model of depression; type: in vivo, rat; conditions: after 8-week CMS, drug for the last four weeks; versus CMS control group
# Description: The rats were first trained to experience and drink a 1% sucrose solution for 48 hrs to be adapted to sweetness. After three days, the test groups were exposed to CMS (chronic mild stress) for a total of eight weeks. The CMS procedure applied to the test groups was based on the procedure originally designed by Willner et al. (1987). The rats were sequentially exposed to a variety of mild stressors, and a series of stressors was suitably divided over one week and applied to rats according to a predetermined time schedule. This procedure was repeated for eight weeks. […] The control rats were weekly exposed only to food and water deprivation for 20 hrs before sucrose intake was measured, and were normally bred in single cages for the rest of the time with sufficient water and food supply. […] Intake of a 1% sucrose solution was measured once every week in each of the four groups. […] Sucrose preference was expressed as a ratio of sucrose intake to total water and sucrose intake. […] In each group, sucrose intake was monitored from the beginning of CMS and for the CMS period of eight weeks. Body weight was measured before the 20-h water and food deprivation performed to measure sucrose intake every week.
# [4] = test system: male Wistar white rats exposed to CMS; experiment: Open field activity after CMS; type: in vivo, rat; conditions: 8-week CMS, drug for the last four weeks; average
# Description: The open field consisted of a wooden box of 75×75×30 cm, the floor of which was divided by width and length lines into 15 cm squares. The open field was connected to a small box of 15×15×15 cm, which was used as a start box where experimental animals waited to enter the open field. A vertical sliding door was installed between the start box and the open field. White rats were placed in the start box, and, after 30 sec, the sliding door was open. The time to leave the start box toward the open field, which was expressed as start latency, was recorded. The start latency time means the time ranging from when the door was opened to when the rat tails completely exited the start box. […] The following behaviors were recorded for a total of 10 min: locomotion, rearing, grooming and defecation. Grooming behavior was recorded as the total time spent grooming in 10 min, and the remaining behaviors were all recorded as frequencies. Locomotor activity was recorded by counting the number of squares each white rat crossed on the floor divided into 25 15×15-cm squares using a computer tracking system. […] Grooming was recorded as the number of times each rat stroked its head or combed its fur with its forepaws during 10 min. After the 10-min observation, the white rats were removed from the open field, and defecation frequency was recorded by counting fecal boluses on the floor of the open field.
# [5] = test system: male rats exposed to CMS; experiment: Sexual (mating) behavior after CMS; type: in vivo, rat; conditions: drug last four weeks
# Procedure: A decrease in sucrose consumption (the core symptom of depression) in rats was confirmed during the 8-week CMS period, and antidepressants were administered for the last four weeks. Then, mating behavior of rats was observed. This test was carried out a dark and quiet room using a 16×16-inch transparent acrylic box. Mature female rats were ovariectomized, and, to induce sexual receptivity, were administered with 20 μg of estradiol benzoate 48 hrs before the test and 1 mg of progesterone 5 hrs before the test. Male rats were singly housed in the same box for 30 min to adapt to a new environment. […] When female rats have sexual receptivity, that is, are estrous, they allow male rats to mount and show lordosis. Sexual behaviors of male rats were divided into mounting, intromission and ejaculation, and frequency of each behavior was recorded. The number of ejaculation (higher frequency generally means higher sexual activity) was recorded for 30 min. The time taken after ejaculation before resumption of sexual activity was called “post-ejaculation interval (PEI)”. A decrease in PEI generally means that male rats have increased sexual activity.
# [6] = test system: 5-HT1A receptor; experiment: [3H]-8-OH-DPAT receptor binding autoradiography on brain sections of CMS rats; type: in vivo, rat
# Procedure: Secondarily, antidepressive effects were evaluated by an increase or decrease in receptor binding of a serotonin 1A receptor agonist, [^3H]-8-OH-DPAT, in the rat prefrontal cortex, hippocampus and hypothalamus, which play important roles in depression, as follows. […] Whole brains were excised from the rats and rapidly frozen in dry ice. The rapidly frozen brains were stored at −70° C. until sectioned. The brains were cryo-sectioned into a size of 20 ? at −20° C. using a cryostat microtome (Leika), and each section was attached onto a gelatin-coated slide (Superfrost/Plus, Fisher Scientific). The slides were stored at −70° C. until use for observing changes in 5-HT1A receptor levels or activity. The changes in 5-HT1A receptor were examined using a radioisotope, [^3H]-8-OH-DPAT. The slides were taken out from a −70° C. freezer where the slides had been stored, and were pre-incubated in Tris-HCl buffer (170 mM Tris, 4 mM CaCl2, pH 7.6) for 30 min at room temperature. Then, the slides were incubated in Tris-HCl buffer containing 2 nM [^3H]-8-OH-DPAT (Amersham) for one hour. This incubation is total binding for observing the changes in the whole 5-HT1A receptor, and non-specific binding was observed using Tris-HCl buffer containing 1 μM 5-HT (Sigma). Then, the slides were washed with Tris-HCl buffer precooled at 4° C. six times and dried with chilled air. The slides were completely dried in a desiccator for 24 hours. The completely dried slides are exposed to Hyperfilm along with a standard scale bar for five weeks. The film exposed for five weeks was developed using a developer and a fixer. For quantitative analysis of density, the film was scanned using an image analysis program, ImageQuant (Molecular dynamics).
# The changes in 5-HT1A receptor levels or activity were examined using a radioisotope, [^3H]-8-OH-DPAT. Reduced levels or inactivation of 5-HT1A receptor occur in the prefrontal cortex, hippocampus and hypothalamus of depressed patients. […] This normalization of 5-HT1A receptor by antidepressant administration is effective in treating depression and depression-associated neurodegeneration. Based on this fact, an increase in 5-HT1A receptor levels can be assessed by a receptor binding assay using a 5-HT1A receptor […]. When an increase in 5-HT1A receptor levels is observed upon Nelumbinis Semen administration in comparison with a control group exposed to CMS, this is considered an in vivo indication of an antidepressive effect at the molecular level. After drugs were administered for the last four weeks of the 8-week CMS period, an increase in 5-HT1A receptor levels, as an in vivo indication of antidepressive effect, was found in animals administered with the Nelumbinis Semen extract.
# [7] = test system: rat hippocampus proteins; experiment: 2-DE analysis of hippocampus proteins of CMS rats; conditions: drug last four weeks, compared to control group
# Description: Thirdly, an increase in marker proteins of antidepression, which play important roles in depression, was examined in the rat hippocampus by 2-DE, as follows. Rats were exposed to CMS for eight weeks and administered with drugs for the last four weeks of a test period. The hippocampus was excised from the rats, suspended with a sonicator and centrifuged, and the supernatants were recovered. Each sample was mixed with an IEF sample buffer and loaded onto an IEF gel. Proteins were separated according to isoelectric point by isoelectric focusing (IEF) in the first dimension and according to molecular weight by SDS-PAGE at 100-200 V for about 1-2 hours in the second dimension. The gel was stained by a Gel-Code Blue staining method and evaluated for elevated or newly emerged proteins by the antidepressive substances. The elevated or newly emerged proteins by the antidepressive substances were subjected to mass spectrometry.
# Protein samples from the rat hippocampus were loaded onto an IEF gel. Proteins were separated according to isoelectric point by isoelectric focusing (IEF) in the first dimension and according to molecular weight by SDS-PAGE in the second dimension.
smiles,measurement,setting,value
CNCCC(Oc1ccc(C(F)(F)F)cc1)c1ccccc1 (stereo not drawn) [fluoxetine],decrease in immobility time in comparison with a control group,[1]; one-day drug administration,9.3%
same,decrease in immobility time in comparison with a control group,[1]; six-day drug administration,22.1%
same,sucrose consumption,[2],restored to levels similar to the normal group
same,body weight,[3],greater weight loss than the control group
same,visit counts in open field,[4],60 places in 10 min
same,post-ejaculation interval (PEI),[5]; compared to control animals exposed to CMS,no significant difference
same,sexual behavior (ejaculation frequency in 30 min),[5]; compared to normal animals,remarkably reduced
same,5-HT1A receptor levels,[6]; CA2 region of the rat hippocampus,decrease
same,decrease in 5-HT1A receptor levels,[6]; CA3 region of the rat hippocampus,2%
same,decrease in 5-HT1A receptor levels,"[6]; layer I-II of the rat cerebral frontal cortex, compared to the NS group, P<0.05",46%
same,5-HT1A receptor levels,"[6]; rat hippocampus and hypothalamus, compared to CMS control group",increase
same,protein spots in 2-DE of hippocampus,[7],decrease in spots 1 and 4
